# According to patent US10344060B2 (priority 2013, dated 2019):
# Like-named read-outs stand apart in the source and are kept apart here.
# Biological target: hNav1.7 (Homo sapiens, UniProt Q15858)
# Assay: cell-based
# Assay type: cell-based
# Settings: for Nav1.4/Nav1.7 / Nav1.5/Nav1.7: ratio of PX tonic IC50 values, Table 11
# [1] = Table 12, PatchXpress, tonic block, read-out: PX hNav1.7 Tonic IC50
# Sequence of hNav1.7 (Q15858 whole entry): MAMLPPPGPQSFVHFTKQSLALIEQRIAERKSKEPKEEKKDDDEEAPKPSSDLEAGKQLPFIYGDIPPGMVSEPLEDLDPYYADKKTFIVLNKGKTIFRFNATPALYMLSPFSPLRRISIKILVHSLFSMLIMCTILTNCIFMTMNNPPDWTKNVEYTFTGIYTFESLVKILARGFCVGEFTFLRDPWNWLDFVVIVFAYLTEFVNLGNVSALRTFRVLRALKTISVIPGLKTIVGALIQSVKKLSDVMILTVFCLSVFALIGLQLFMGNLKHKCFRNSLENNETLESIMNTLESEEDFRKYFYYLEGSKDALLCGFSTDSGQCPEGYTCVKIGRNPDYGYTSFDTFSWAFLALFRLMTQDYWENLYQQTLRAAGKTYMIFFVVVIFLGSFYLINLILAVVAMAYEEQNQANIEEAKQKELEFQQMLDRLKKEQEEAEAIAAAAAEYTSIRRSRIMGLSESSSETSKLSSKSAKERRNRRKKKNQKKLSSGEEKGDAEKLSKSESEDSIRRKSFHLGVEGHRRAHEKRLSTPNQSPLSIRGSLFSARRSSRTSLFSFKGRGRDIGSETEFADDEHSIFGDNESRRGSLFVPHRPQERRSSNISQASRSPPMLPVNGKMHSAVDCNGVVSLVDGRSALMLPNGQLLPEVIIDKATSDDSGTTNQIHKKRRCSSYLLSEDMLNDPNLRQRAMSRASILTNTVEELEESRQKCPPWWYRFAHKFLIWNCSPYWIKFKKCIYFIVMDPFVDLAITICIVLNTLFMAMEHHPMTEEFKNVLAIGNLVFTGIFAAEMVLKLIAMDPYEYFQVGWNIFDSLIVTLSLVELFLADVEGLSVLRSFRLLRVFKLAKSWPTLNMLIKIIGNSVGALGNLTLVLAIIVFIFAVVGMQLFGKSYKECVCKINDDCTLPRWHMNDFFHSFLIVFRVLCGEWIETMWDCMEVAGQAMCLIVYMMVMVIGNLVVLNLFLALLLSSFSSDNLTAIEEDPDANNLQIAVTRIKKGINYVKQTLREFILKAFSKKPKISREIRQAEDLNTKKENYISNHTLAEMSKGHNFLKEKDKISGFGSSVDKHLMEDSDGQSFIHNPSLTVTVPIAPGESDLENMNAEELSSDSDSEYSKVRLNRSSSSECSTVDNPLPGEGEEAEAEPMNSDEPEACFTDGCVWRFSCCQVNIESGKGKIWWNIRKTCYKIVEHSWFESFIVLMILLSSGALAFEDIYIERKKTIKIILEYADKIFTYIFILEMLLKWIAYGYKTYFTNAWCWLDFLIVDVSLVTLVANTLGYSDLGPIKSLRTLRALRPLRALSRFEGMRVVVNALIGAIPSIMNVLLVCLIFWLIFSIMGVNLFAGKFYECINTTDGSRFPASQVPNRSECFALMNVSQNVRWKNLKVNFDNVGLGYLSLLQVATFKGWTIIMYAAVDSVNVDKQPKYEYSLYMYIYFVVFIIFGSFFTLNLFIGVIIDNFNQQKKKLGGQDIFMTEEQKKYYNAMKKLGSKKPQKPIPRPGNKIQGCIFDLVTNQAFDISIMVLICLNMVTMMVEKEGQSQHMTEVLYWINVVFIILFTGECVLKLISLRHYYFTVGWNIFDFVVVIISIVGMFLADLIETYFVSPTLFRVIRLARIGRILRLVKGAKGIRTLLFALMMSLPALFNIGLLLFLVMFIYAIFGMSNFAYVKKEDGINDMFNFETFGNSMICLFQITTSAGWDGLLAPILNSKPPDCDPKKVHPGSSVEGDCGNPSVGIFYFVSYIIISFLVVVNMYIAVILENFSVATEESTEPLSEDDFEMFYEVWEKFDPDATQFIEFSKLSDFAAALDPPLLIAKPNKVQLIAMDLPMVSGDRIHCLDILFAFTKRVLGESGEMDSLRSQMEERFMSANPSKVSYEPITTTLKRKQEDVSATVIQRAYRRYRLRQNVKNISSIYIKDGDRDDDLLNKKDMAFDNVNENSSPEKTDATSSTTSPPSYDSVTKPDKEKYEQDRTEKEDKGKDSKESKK
Structure (SMILES),IC50 [1] [µM],Nav1.4/Nav1.7,Nav1.5/Nav1.7,also measured
C#CC[C@H](N)C(=O)N[C@@H](Cc1ccc(O)cc1)C(=O)N[C@H]1CSSC[C@@H]2NC(=O)[C@@H]3CSSC[C@@H](C(=O)N[C@@H](CCCNC(=N)N)C(=O)N[C@@H](CCCCN)C(=O)N[C@@H](CCC(=O)O)C(=O)N[C@H](C(=O)N[C@@H](CCC(=O)O)C(N)=O)[C@@H](C)CC)NC(=O)[C@H](Cc4c[nH]c5ccccc45)NC(=O)[C@H](CC(C)C)NC(=O)[C@H](CCCCN)NC(=O)[C@H](CSSC[C@H](NC(=O)[C@H]([C@@H](C)O)NC(=O)[C@H](Cc4c[nH]c5ccccc45)NC(=O)[C@H](CCCC)NC(=O)[C@H](Cc4c[nH]c5ccccc45)NC(=O)[C@H](CCCCN)NC(=O)[C@H](CCC(N)=O)NC1=O)C(=O)N[C@@H](CC(=O)O)C(=O)N[C@@H](CO)C(=O)N[C@@H](CCCCN)C(=O)N[C@@H](CCCNC(=N)N)C(=O)N[C@@H](C)C(=O)N3)NC(=O)[C@H](CCCNC(=N)N)NC(=O)[C@H](CC(C)C)NC(=O)CNC(=O)[C@H](CCC(=O)O)NC2=O [compound 726],0.0324,,,
CCCC[C@@H]1NC(=O)[C@H](Cc2c[nH]c3ccccc23)NC(=O)[C@H](CCCCN)NC(=O)[C@H](CCC(N)=O)NC(=O)[C@@H](NC(=O)[C@H](Cc2ccc(O)cc2)NC(=O)[C@@H](N)CCC)CSSC[C@@H]2NC(=O)[C@@H]3CSSC[C@@H](C(=O)N[C@@H](CCCNC(=N)N)C(=O)N[C@@H](CCCCN)C(=O)N[C@H](C(=O)N[C@H](C(N)=O)[C@@H](C)CC)[C@@H](C)CC)NC(=O)[C@H](Cc4c[nH]c5ccccc45)NC(=O)[C@H](CC(C)C)NC(=O)[C@H](CCCCN)NC(=O)[C@H](CSSC[C@H](NC(=O)[C@H]([C@@H](C)O)NC(=O)[C@H](Cc4c[nH]c5ccccc45)NC1=O)C(=O)N[C@@H](CC(=O)O)C(=O)N[C@@H](CO)C(=O)N[C@@H](CCCCN)C(=O)N[C@@H](CCCNC(=N)N)C(=O)N[C@@H](C)C(=O)N3)NC(=O)[C@H](CCCNC(=N)N)NC(=O)[C@H](CC(C)C)NC(=O)CNC(=O)[C@H](CCC(=O)O)NC2=O [compound 369],,552,23418,
C#CC[C@@H]1NC(=O)[C@H](CO)NC(=O)[C@H](CC(=O)O)NC(=O)[C@@H]2CSSC[C@@H]3NC(=O)[C@H](CCCNC(=N)N)NC(=O)[C@H](CC(C)C)NC(=O)CNC(=O)[C@H](CCC(=O)O)NC(=O)[C@H](CSSC[C@H](NC(=O)[C@@H](N)Cc4ccc(O)cc4)C(=O)N[C@@H](CCC(N)=O)C(=O)N[C@@H](CCCCN)C(=O)N[C@@H](Cc4c[nH]c5ccccc45)C(=O)N[C@@H](CCCC)C(=O)N[C@@H](Cc4c[nH]c5ccccc45)C(=O)N[C@@H]([C@@H](C)O)C(=O)N2)NC(=O)[C@H](CSSC[C@@H](C(=O)N[C@@H](CCCNC(=N)N)C(=O)N[C@@H](CCCCN)C(=O)N[C@@H](CCC(=O)O)C(=O)N[C@H](C(N)=O)[C@@H](C)CC)NC(=O)[C@H](Cc2c[nH]c4ccccc24)NC(=O)[C@H](CC(C)C)NC(=O)[C@H](CCCCN)NC3=O)NC(=O)[C@H](C)NC(=O)[C@H](CCCNC(=N)N)NC1=O [compound 879],0.00135,,,
C#CC[C@H](N)C(=O)N[C@@H](Cc1ccc(O)cc1)C(=O)N[C@H]1CSSC[C@@H]2NC(=O)[C@@H]3CSSC[C@@H](C(=O)N[C@@H](CCCNC(=N)N)C(=O)N[C@@H](CCCCN)C(=O)N[C@@H](CCC(=O)O)C(=O)N[C@H](C(N)=O)[C@@H](C)CC)NC(=O)[C@H](Cc4c[nH]c5ccccc45)NC(=O)[C@H](CC(C)C)NC(=O)[C@H](CCCCN)NC(=O)[C@H](CSSC[C@H](NC(=O)[C@H]([C@@H](C)O)NC(=O)[C@H](Cc4c[nH]c5ccccc45)NC(=O)[C@H](CCCC)NC(=O)[C@H](Cc4c[nH]c5ccccc45)NC(=O)[C@H](CCCCN)NC(=O)[C@H](CCC(N)=O)NC1=O)C(=O)N[C@@H](CC(=O)O)C(=O)N[C@@H](CO)C(=O)N[C@@H](CCCCN)C(=O)N[C@@H](CCCNC(=N)N)C(=O)N[C@@H](C)C(=O)N3)NC(=O)[C@H](Cc1ccccc1)NC(=O)[C@H](CC(C)C)NC(=O)CNC(=O)[C@H](CCC(=O)O)NC2=O [compound 686],0.0103,,,
CCCC[C@@H]1NC(=O)[C@H](Cc2c[nH]c3ccccc23)NC(=O)[C@H](CCCCN)NC(=O)[C@H](CCC(N)=O)NC(=O)[C@@H](NC(=O)[C@H](Cc2ccc(O)cc2)NC(=O)[C@H](CCC)NC(=O)[C@H](N)CC(C)C)CSSC[C@@H]2NC(=O)[C@@H]3CSSC[C@@H](C(=O)N[C@@H](CCCNC(=N)N)C(=O)N[C@@H](CCCCN)C(=O)N[C@@H](CCC(=O)O)C(=O)N[C@H](C(N)=O)[C@@H](C)CC)NC(=O)[C@H](Cc4c[nH]c5ccccc45)NC(=O)[C@H](CC(C)C)NC(=O)[C@H](CCCCN)NC(=O)[C@H](CSSC[C@H](NC(=O)[C@H]([C@@H](C)O)NC(=O)[C@H](Cc4c[nH]c5ccccc45)NC1=O)C(=O)N[C@@H](CC(=O)O)C(=O)N[C@@H](CO)C(=O)N[C@@H](CCCCN)C(=O)N[C@@H](CCCNC(=N)N)C(=O)N[C@@H](CCCCNC(=O)CCOCCOCCOCCOCCOCCOCCOCCOCCOCCOCCOCCOCCN)C(=O)N3)NC(=O)[C@H](CCCNC(=N)N)NC(=O)[C@H](CC(C)C)NC(=O)CNC(=O)[C@H](CCC(=O)O)NC2=O [compound 472],,42,349,
CCCC[C@@H]1NC(=O)[C@H](Cc2c[nH]c3ccccc23)NC(=O)[C@H](CCCCN)NC(=O)[C@H](CCC(N)=O)NC(=O)[C@@H](NC(=O)[C@H](Cc2ccc(O)cc2)NC(=O)[C@@H](N)Cc2cn(CCOCCOCCOCCOCCOCCOCCOCCOCCOCCOCCOCCOCCOCCOCCOCCOCCOCCOCCOCCOCCOCCOCCOCCNC(=O)c3cc(CNC(=O)CSCc4ccccc4)cc(C(=O)NCCOCCOCCOCCOCCOCCOCCOCCOCCOCCOCCOCCOCCOCCOCCOCCOCCOCCOCCOCCOCCOCCOCCOCCn4cc(C[C@H](N)C(=O)N[C@@H](Cc5ccc(O)cc5)C(=O)N[C@H]5CSSC[C@@H]6NC(=O)[C@@H]7CSSC[C@@H](C(=O)N[C@@H](CCCNC(=N)N)C(=O)N[C@@H](CCCCN)C(=O)N[C@H](C(=O)N[C@H](C(N)=O)[C@@H](C)CC)[C@@H](C)CC)NC(=O)[C@H](Cc8c[nH]c9ccccc89)NC(=O)[C@H](CC(C)C)NC(=O)[C@H](CCCCN)NC(=O)[C@H](CSSC[C@H](NC(=O)[C@H]([C@@H](C)O)NC(=O)[C@H](Cc8c[nH]c9ccccc89)NC(=O)[C@H](CCCC)NC(=O)[C@H](Cc8c[nH]c9ccccc89)NC(=O)[C@H](CCCCN)NC(=O)[C@H](CCC(N)=O)NC5=O)C(=O)N[C@@H](CC(=O)O)C(=O)N[C@@H](CO)C(=O)N[C@@H](CCCCN)C(=O)N[C@@H](CCCNC(=N)N)C(=O)N[C@@H](C)C(=O)N7)NC(=O)[C@H](CCCNC(=N)N)NC(=O)[C@H](CC(C)C)NC(=O)CNC(=O)[C@H](CCC(=O)O)NC6=O)nn4)c3)nn2)CSSC[C@@H]2NC(=O)[C@@H]3CSSC[C@@H](C(=O)N[C@@H](CCCNC(=N)N)C(=O)N[C@@H](CCCCN)C(=O)N[C@H](C(=O)N[C@H](C(N)=O)[C@@H](C)CC)[C@@H](C)CC)NC(=O)[C@H](Cc4c[nH]c5ccccc45)NC(=O)[C@H](CC(C)C)NC(=O)[C@H](CCCCN)NC(=O)[C@H](CSSC[C@H](NC(=O)[C@H]([C@@H](C)O)NC(=O)[C@H](Cc4c[nH]c5ccccc45)NC1=O)C(=O)N[C@@H](CC(=O)O)C(=O)N[C@@H](CO)C(=O)N[C@@H](CCCCN)C(=O)N[C@@H](CCCNC(=N)N)C(=O)N[C@@H](C)C(=O)N3)NC(=O)[C@H](CCCNC(=N)N)NC(=O)[C@H](CC(C)C)NC(=O)CNC(=O)[C@H](CCC(=O)O)NC2=O [Homodimeric Peptide No. 2],,,,"Wash out (PatchXpress Nav1.7, whether block washes out (Yes/No)): No; IC50 (read-out: Nav1.7 PX IC50): 0.000241 µM"
C#CC[C@H](N)C(=O)N[C@@H](Cc1ccc(O)cc1)C(=O)N[C@H]1CSSC[C@@H]2NC(=O)[C@@H]3CSSC[C@@H](C(=O)N[C@@H](CCCNC(=N)N)C(=O)N[C@@H](CCCCN)C(=O)N[C@@H](CCC(=O)O)C(=O)N[C@H](C(N)=O)[C@@H](C)CC)NC(=O)[C@H](Cc4c[nH]c5ccccc45)NC(=O)[C@H](CC(C)C)NC(=O)[C@H](CCCCN)NC(=O)[C@H](CSSC[C@H](NC(=O)[C@H]([C@@H](C)O)NC(=O)[C@H](Cc4c[nH]c5ccc(Br)cc45)NC(=O)[C@H](CCCC)NC(=O)[C@H](Cc4c[nH]c5ccccc45)NC(=O)[C@H](CCCCN)NC(=O)[C@H](CCC(N)=O)NC1=O)C(=O)N[C@@H](CC(=O)O)C(=O)N[C@@H](CO)C(=O)N[C@@H](CCCCN)C(=O)N[C@@H](CCCNC(=N)N)C(=O)N[C@@H](C)C(=O)N3)NC(=O)[C@H](CCCNC(=N)N)NC(=O)[C@H](CC(C)C)NC(=O)CNC(=O)[C@H](CCC(=O)O)NC2=O [compound 850],0.54,,,
C#CC[C@H](N)C(=O)N[C@@H](Cc1ccc(O)cc1)C(=O)N[C@H]1CSSC[C@@H]2NC(=O)[C@@H]3CSSC[C@@H](C(=O)N[C@@H](CCCNC(=N)N)C(=O)N[C@@H](CCCCN)C(=O)N[C@@H](CCC(=O)O)C(=O)N[C@H](C(N)=O)[C@@H](C)CC)NC(=O)[C@H](Cc4c[nH]c5ccccc45)NC(=O)[C@H](CC(C)C)NC(=O)[C@H](CCCCN)NC(=O)[C@H](CSSC[C@H](NC(=O)[C@H]([C@@H](C)O)NC(=O)[C@H](Cc4c[nH]c5ccccc45)NC(=O)[C@H](CCCC)NC(=O)[C@H](Cc4c[nH]c5ccccc45)NC(=O)[C@H](CCCCN)NC(=O)[C@H](CCC(N)=O)NC1=O)C(=O)N[C@@H](CC(=O)O)C(=O)N[C@@H](CO)C(=O)N[C@@H](CCCCN)C(=O)N[C@@H](CCCNC(=N)N)C(=O)N[C@@H](C)C(=O)N3)NC(=O)[C@H](CCCNC(=N)N)NC(=O)[C@H](CC(C)C)NC(=O)[C@H](CCC(=O)O)NC(=O)[C@H](CCC(=O)O)NC2=O [compound 719],> 1,,,
CSCC[C@@H]1NC(=O)[C@H](Cc2c[nH]c3ccccc23)NC(=O)[C@H](CCCCN)NC(=O)[C@H](CCC(N)=O)NC(=O)[C@@H](NC(=O)[C@@H](N)Cc2ccc(O)cc2)CSSC[C@@H]2NC(=O)[C@@H]3CSSC[C@@H](C(=O)N[C@@H](CCCNC(=N)N)C(=O)N[C@@H](CCCCN)C(=O)N[C@@H](Cc4ccc(O)cc4)C(=O)N[C@@H](Cc4ccc5ccccc5c4)C(N)=O)NC(=O)[C@H](Cc4c[nH]c5ccccc45)NC(=O)[C@H](CC(C)C)NC(=O)[C@H](CCCCN)NC(=O)[C@H](CSSC[C@H](NC(=O)[C@H]([C@@H](C)O)NC(=O)[C@H](Cc4c[nH]c5ccccc45)NC1=O)C(=O)N[C@@H](CC(=O)O)C(=O)N[C@@H](CO)C(=O)N[C@@H](CCCCN)C(=O)N[C@@H](CCCNC(=N)N)C(=O)N[C@@H](C)C(=O)N3)NC(=O)[C@H](CCC(=O)O)NC(=O)[C@H](CC(C)C)NC(=O)CNC(=O)[C@H](CCC(=O)O)NC2=O [compound 233],,265,433,
